# Assays:
# [1] = molecular target: BRD4-BD2 (Homo sapiens (Human), UniProt O60885); test: BRD4 AlphaScreen assay (BRD4-BD2); format: binding; conditions: biotin-labeled tetra-acetylated histone H4 peptide
# Description: (§1) BRD4-BD1 and BRD4-BD2 assays were conducted in white 384-well polystyrene plate in a final volume of 40 μL for BD1 and 60 μL for BD2. Inhibitors were first serially diluted in DMSO and added to the plate wells before the addition of other reaction components. The final concentration of DMSO in the assay was 1.25% (BD1) and 0.83% (BD2). The assays were carried out at room temperature in the assay buffer (50 mM Tris-HCl, pH 7.5, 0.01% Tween-20, 0.01% BSA, 5 mM DTT), containing 50 nM Biotin-labeled tetra-acetylated histone H4 peptide (H4Ac4) and BRD4-BD1 or BRD4-BD2 protein at concentration less than 1 nM. The incubation for 75 min. was followed by the addition of 20 μL of assay buffer supplemented with Streptavidin donor beads (PerkinElmer 6760002) and GSH Acceptor beads (PerkinElmer-AL109C) at final concentration 2-4 μg/mL under reduced light. After plate sealing, the plate was incubated in the dark at room temperature for 75 min. before reading on a PHERAstar FS plate reader (BMG Labtech). IC50 determination was performed by fitting the curve of percent control activity versus the log of the inhibitor concentration using the GraphPad Prism 5.0 software.
# [2] = molecular target: BRD4-BD1 (Homo sapiens (Human), UniProt O60885); test: BRD4 AlphaScreen assay (BRD4-BD1); format: binding; conditions: biotin-labeled tetra-acetylated histone H4 peptide
# Description: as §1
IC50 [2],Compound,IC50 [1]
≤ 100 nM,"COc1cc2c(c(-c3cn(C)c(=O)c4[nH]ccc34)c1)OC(C(C)C)C(=O)N2 (single isomer, unassigned) [Example 9A, 2-isopropyl-6-methoxy-8-(6-methyl-7-oxo-6,7-dihydro-1H-pyrrolo[2,3-c]pyridin-4-yl)-2H-1,4-benzoxazin-3(4H)-one]",≤ 100 nM
≤ 100 nM,"COc1cc2c(c(-c3cn(C)c(=O)c4[nH]ccc34)c1)OC(C(C)C)C(=O)N2 (single isomer, unassigned) [Example 9B, 2-isopropyl-6-methoxy-8-(6-methyl-7-oxo-6,7-dihydro-1H-pyrrolo[2,3-c]pyridin-4-yl)-2H-1,4-benzoxazin-3(4H)-one]",≤ 100 nM
≤ 100 nM,"COc1cc2c(c(-c3cn(C)c(=O)c4[nH]ccc34)c1)OC(C1CCCC1)C(=O)N2 (single isomer, unassigned) [Example 35A, 2-Cyclopentyl-6-methoxy-8-(6-methyl-7-oxo-6,7-dihydro-1H-pyrrolo[2,3-c]pyridin-4-yl)-2H-1,4-benzoxazin-3(4H)-one]",≤ 100 nM
≤ 100 nM,"COc1cc2c(c(-c3cn(C)c(=O)c4[nH]ccc34)c1)OC(C1CCCC1)C(=O)N2 (single isomer, unassigned) [Example 35B, 2-Cyclopentyl-6-methoxy-8-(6-methyl-7-oxo-6,7-dihydro-1H-pyrrolo[2,3-c]pyridin-4-yl)-2H-1,4-benzoxazin-3(4H)-one]",≤ 100 nM
≤ 100 nM,"COc1cc2c(c(-c3cn(C)c(=O)c4[nH]ccc34)c1)OC(C(C)C)C(=O)N2 (stereo not shown) [Example 9, 2-isopropyl-6-methoxy-8-(6-methyl-7-oxo-6,7-dihydro-1H-pyrrolo[2,3-c]pyridin-4-yl)-2H-1,4-benzoxazin-3(4H)-one]",
≤ 100 nM,"COc1cc2c(c(-c3cn(C)c(=O)c4[nH]ccc34)c1)OC(C1CCCC1)C(=O)N2 (stereo not shown) [Example 35, 2-cyclopentyl-6-methoxy-8-(6-methyl-7-oxo-6,7-dihydro-1H-pyrrolo[2,3-c]pyridin-4-yl)-2H-1,4-benzoxazin-3(4H)-one]",

# The next lines start with the compound.
Compound,IC50 [2],IC50 [1]
"COc1cc2c(c(-c3cn(C)c(=O)c4[nH]ccc34)c1)OC(c1ccccc1)C(=O)N2 (single isomer, unassigned) [Example 24A, 6-methoxy-8-(6-methyl-7-oxo-6,7-dihydro-1H-pyrrolo[2,3-c]pyridin-4-yl)-2-phenyl-2H-1,4-benzoxazin-3(4H)-one]",≤ 100 nM,≤ 100 nM
"COc1cc2c(c(-c3cn(C)c(=O)c4[nH]ccc34)c1)OC(c1ccccc1)C(=O)N2 (single isomer, unassigned) [Example 24B, 6-methoxy-8-(6-methyl-7-oxo-6,7-dihydro-1H-pyrrolo[2,3-c]pyridin-4-yl)-2-phenyl-2H-1,4-benzoxazin-3(4H)-one]",≤ 100 nM,≤ 100 nM
"COc1cc2c(c(-c3cn(C)c(=O)c4[nH]ncc34)c1)OC(C1CCCC1)C(=O)N2 (single isomer, unassigned) [Example 42A, 2-cyclopentyl-6-methoxy-8-(6-methyl-7-oxo-6,7-dihydro-1H-pyrazolo[3,4-c]pyridin-4-yl)-2H-1,4-benzoxazin-3(4H)-one]",≤ 100 nM,≤ 100 nM
"COc1cc2c(c(-c3cn(C)c(=O)c4[nH]ncc34)c1)OC(C1CCCC1)C(=O)N2 (single isomer, unassigned) [Example 42B, 2-cyclopentyl-6-methoxy-8-(6-methyl-7-oxo-6,7-dihydro-1H-pyrazolo[3,4-c]pyridin-4-yl)-2H-1,4-benzoxazin-3(4H)-one]",,≤ 100 nM
"CC(C)C1Oc2c(cc(S(C)(=O)=O)cc2-c2cn(C)c(=O)c3[nH]ccc23)NC1=O (single isomer, unassigned) [Example 44A, 2-isopropyl-8-(6-methyl-7-oxo-6,7-dihydro-1H-pyrrolo[2,3-c]pyridin-4-yl)-6-(methylsulfonyl)-2H-1,4-benzoxazin-3(4H)-one]",≤ 100 nM,≤ 100 nM
